Numbered stars: 1 amine (or outer) side, 2 acyl side, 3 side chain; on linkers, the order of the positions; unused ones are H or OH. Side chains are listed from the residue outwards. Peptide text beside a SMILES is read from it. * marks the point of attachment. C18 diacid = O=C(O)CCCCCCCCCCCCCCCCC(=O)*; C16 diacid = O=C(O)CCCCCCCCCCCCCCC(=O)*; γGlu = O=C(O)[C@H](CCC(=O)[*:2])N[*:1]; AEEA = NCCOCCOCC(=O)O
Columns and labels:
[1] = Assay (X) Chemical stability assessment by RP-UPLC; assay type: physicochemical; settings: pH 8.15, 14 days at 37° C. vs 5° C., 333 μM
glucagon receptor = biological target: T1, glucagon receptor (Homo sapiens, UniProt P47871); assay: Assay (I) Glucagon activity (cAMP biosensor, FLIPR); assay type: cell-based
T1 construct: expressed in transfected cells
T1 sequence (P47871 26-477): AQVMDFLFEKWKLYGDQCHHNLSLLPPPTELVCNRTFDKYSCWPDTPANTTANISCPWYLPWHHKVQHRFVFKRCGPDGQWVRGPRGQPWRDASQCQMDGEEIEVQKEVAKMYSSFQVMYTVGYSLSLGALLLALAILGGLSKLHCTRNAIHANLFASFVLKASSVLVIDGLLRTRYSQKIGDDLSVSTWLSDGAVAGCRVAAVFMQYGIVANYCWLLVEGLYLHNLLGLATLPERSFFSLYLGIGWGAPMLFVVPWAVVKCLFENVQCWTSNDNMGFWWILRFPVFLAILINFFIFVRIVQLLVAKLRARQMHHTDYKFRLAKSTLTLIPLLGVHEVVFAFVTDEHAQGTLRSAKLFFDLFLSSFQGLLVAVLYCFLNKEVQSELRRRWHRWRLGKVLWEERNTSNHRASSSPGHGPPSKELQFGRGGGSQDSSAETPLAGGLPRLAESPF

Structure (SMILES): CC(C)C[C@H](NC(=O)[C@H](CC(C)C)NC(=O)[C@H](Cc1c[nH]c2ccccc12)NC(=O)[C@H](CCCCNC(=O)CC[C@H](NC(=O)CC[C@H](NC(=O)COCCOCCNC(=O)COCCOCCNC(=O)CC[C@H](NC(=O)CCCCCCCCCCCCCCC(=O)O)C(=O)O)C(=O)O)C(=O)O)NC(=O)[C@@H](NC(=O)[C@H](Cc1ccccc1)NC(=O)[C@H](CC(=O)O)NC(=O)[C@H](CCC(N)=O)NC(=O)[C@H](C)NC(=O)[C@H](CCCNC(=N)N)NC(=O)[C@H](CCCNC(=N)N)NC(=O)[C@H](CC(C)C)NC(=O)[C@H](CC(=O)O)NC(=O)[C@H](CC(C)C)NC(=O)[C@H](Cc1ccc(O)cc1)NC(=O)[C@H](CCCNC(=N)N)NC(=O)[C@H](CO)NC(=O)[C@H](Cc1ccc(O)cc1)NC(=O)[C@H](CC(=O)O)NC(=O)[C@H](CO)NC(=O)[C@@H](NC(=O)[C@H](Cc1ccccc1)NC(=O)[C@@H](NC(=O)CNC(=O)[C@H](CCC(N)=O)NC(=O)[C@H](CO)NC(=O)[C@@H](N)Cc1c[nH]cn1)[C@@H](C)O)[C@@H](C)O)C(C)C)C(=O)N[C@@H](C)C(=O)N[C@H](C(=O)O)[C@@H](C)O [Example 89, N^ε24-[(4S)-4-carboxy-4-[[(4S)-4-carboxy-4-[[2-[2-[2-[[2-[2-[2-[[(4S)-4-carboxy-4-(15-carboxypentadecanoylamino)butanoyl]amino]ethoxy]ethoxy]acetyl]amino]ethoxy]ethoxy]acetyl]amino]butanoyl]amino]butanoyl]-[Arg12,Leu16,Lys24,Leu27,Ala28]-Glucagon] (H-HSQGTFTSDYSRYLDLRRAQDFVK([γGlu-γGlu-AEEA-AEEA-γGlu-C16 diacid])WLLAT-OH)
- Chemical stability [Purity loss/14 days 37 C.] [1]: 6.8%
- EC50 (glucagon receptor): 0.064 nM

Structure (SMILES): CC(C)C[C@H](NC(=O)[C@H](CC(C)C)NC(=O)[C@H](Cc1c[nH]c2ccccc12)NC(=O)[C@H](CCCCNC(=O)CC[C@H](NC(=O)CC[C@H](NC(=O)COCCOCCNC(=O)COCCOCCNC(=O)CC[C@H](NC(=O)CCCCCCCCCCCCCCC(=O)O)C(=O)O)C(=O)O)C(=O)O)NC(=O)[C@@H](NC(=O)[C@H](Cc1ccccc1)NC(=O)[C@H](CC(=O)O)NC(=O)[C@H](CCC(N)=O)NC(=O)[C@H](C)NC(=O)[C@H](CCCNC(=N)N)NC(=O)[C@H](CCCNC(=N)N)NC(=O)[C@H](CC(C)C)NC(=O)[C@H](CC(=O)O)NC(=O)[C@H](CC(C)C)NC(=O)[C@H](Cc1ccc(O)cc1)NC(=O)[C@H](CCCNC(=N)N)NC(=O)[C@H](CO)NC(=O)[C@H](Cc1ccc(O)cc1)NC(=O)[C@H](CC(=O)O)NC(=O)[C@H](CO)NC(=O)[C@@H](NC(=O)[C@H](Cc1ccccc1)NC(=O)[C@@H](NC(=O)CNC(=O)[C@H](CCC(N)=O)NC(=O)[C@H](CO)NC(=O)[C@@H](N)Cc1c[nH]cn1)[C@@H](C)O)[C@@H](C)O)C(C)C)C(=O)NCC(=O)N[C@H](C(=O)O)[C@@H](C)O [Example 90, N^ε24-[(4S)-4-carboxy-4-[[(4S)-4-carboxy-4-[[2-[2-[2-[[2-[2-[2-[[(4S)-4-carboxy-4-(15-carboxypentadecanoylamino)butanoyl]amino]ethoxy]ethoxy]acetyl]amino]ethoxy]ethoxy]acetyl]amino]butanoyl]amino]butanoyl]-[Arg12,Leu16,Lys24,Leu27,Gly28]-Glucagon] (H-HSQGTFTSDYSRYLDLRRAQDFVK([γGlu-γGlu-AEEA-AEEA-γGlu-C16 diacid])WLLGT-OH)
- Chemical stability [Purity loss/14 days 37 C.] [1]: 5.4%
- EC50 (glucagon receptor): 0.09 nM

Structure (SMILES): CC(C)C[C@H](NC(=O)[C@H](Cc1ccc(O)cc1)NC(=O)[C@H](CCCNC(=N)N)NC(=O)[C@H](CO)NC(=O)[C@H](Cc1ccc(O)cc1)NC(=O)[C@H](CC(=O)O)NC(=O)[C@H](CO)NC(=O)[C@@H](NC(=O)[C@H](Cc1ccccc1)NC(=O)[C@@H](NC(=O)CNC(=O)[C@H](CCC(N)=O)NC(=O)[C@H](CO)NC(=O)[C@@H](N)Cc1c[nH]cn1)[C@@H](C)O)[C@@H](C)O)C(=O)N[C@@H](CC(=O)O)C(=O)N[C@@H](C)C(=O)N[C@@H](CCCNC(=N)N)C(=O)N[C@@H](CCCNC(=N)N)C(=O)N[C@@H](C)C(=O)N[C@@H](CCC(N)=O)C(=O)N[C@@H](CC(=O)O)C(=O)N[C@@H](Cc1ccccc1)C(=O)N[C@H](C(=O)N[C@@H](CCCCNC(=O)CC[C@H](NC(=O)CC[C@H](NC(=O)CC[C@H](NC(=O)CCCCCCCCCCCCCCCCC(=O)O)C(=O)O)C(=O)O)C(=O)O)C(=O)N[C@@H](Cc1c[nH]c2ccccc12)C(=O)N[C@@H](CC(C)C)C(=O)N[C@@H](CC(C)C)C(=O)N[C@@H](CO)C(=O)N[C@H](C(=O)O)[C@@H](C)O)C(C)C [Example 92, N^ε24-[(4S)-4-carboxy-4-[[(4S)-4-carboxy-4-[[(4S)-4-carboxy-4-(17-carboxyheptadecanoylamino)butanoyl]amino]butanoyl]amino]butanoyl]-[Arg12,Ala16,Lys24,Leu27,Ser28]-Glucagon] (H-HSQGTFTSDYSRYLDARRAQDFVK([γGlu-γGlu-γGlu-C18 diacid])WLLST-OH)
- Chemical stability [Purity loss/14 days 37 C.] [1]: 6.5%
- EC50 (glucagon receptor): 0.066 nM

Structure (SMILES): CC(C)C[C@H](NC(=O)[C@H](Cc1ccc(O)cc1)NC(=O)[C@H](CCCCN)NC(=O)[C@H](CO)NC(=O)[C@H](Cc1ccc(O)cc1)NC(=O)[C@H](CC(=O)O)NC(=O)[C@H](CO)NC(=O)[C@@H](NC(=O)[C@H](Cc1ccccc1)NC(=O)[C@@H](NC(=O)CNC(=O)[C@H](CCC(N)=O)NC(=O)[C@H](CO)NC(=O)[C@@H](N)Cc1c[nH]cn1)[C@@H](C)O)[C@@H](C)O)C(=O)N[C@@H](CC(=O)O)C(=O)N[C@@H](CCC(=O)O)C(=O)N[C@@H](CCCNC(=N)N)C(=O)N[C@@H](CCCNC(=N)N)C(=O)N[C@@H](C)C(=O)N[C@@H](CCC(N)=O)C(=O)N[C@@H](CC(=O)O)C(=O)N[C@@H](Cc1ccccc1)C(=O)N[C@H](C(=O)N[C@@H](CCCCNC(=O)CC[C@H](NC(=O)CC[C@H](NC(=O)COCCOCCNC(=O)COCCOCCNC(=O)CC[C@H](NC(=O)CCCCCCCCCCCCCCC(=O)O)C(=O)O)C(=O)O)C(=O)O)C(=O)N[C@@H](Cc1c[nH]c2ccccc12)C(=O)N[C@@H](CC(C)C)C(=O)N[C@@H](CC(C)C)C(=O)N[C@@H](CO)C(=O)N[C@H](C(=O)O)[C@@H](C)O)C(C)C [Example 93, N^ε24-[(4S)-4-carboxy-4-[[(4S)-4-carboxy-4-[[2-[2-[2-[[2-[2-[2-[[(4S)-4-carboxy-4-(15-carboxypentadecanoylamino)butanoyl]amino]ethoxy]ethoxy]acetyl]amino]ethoxy]ethoxy]acetyl]amino]butanoyl]amino]butanoyl]-[Glu16,Lys24,Leu27,Ser28]-Glucagon] (H-HSQGTFTSDYSKYLDERRAQDFVK([γGlu-γGlu-AEEA-AEEA-γGlu-C16 diacid])WLLST-OH; N-terminus and C-terminus assumed)
- Chemical stability [Purity loss/14 days 37 C.] [1]: 14%
- EC50 (glucagon receptor): 0.017 nM

Structure (SMILES): CC(C)C[C@H](NC(=O)[C@H](Cc1ccc(O)cc1)NC(=O)[C@H](CCCNC(=N)N)NC(=O)[C@H](CO)NC(=O)[C@H](Cc1ccc(O)cc1)NC(=O)[C@H](CC(=O)O)NC(=O)[C@H](CO)NC(=O)[C@@H](NC(=O)[C@H](Cc1ccccc1)NC(=O)[C@@H](NC(=O)CNC(=O)[C@H](CCC(N)=O)NC(=O)[C@H](CO)NC(=O)[C@@H](N)Cc1c[nH]cn1)[C@@H](C)O)[C@@H](C)O)C(=O)N[C@@H](CC(=O)O)C(=O)N[C@@H](CCC(=O)O)C(=O)N[C@@H](CCCNC(=N)N)C(=O)N[C@@H](CCCNC(=N)N)C(=O)N[C@@H](C)C(=O)N[C@@H](CCC(N)=O)C(=O)N[C@@H](CC(=O)O)C(=O)N[C@@H](Cc1ccccc1)C(=O)N[C@H](C(=O)N[C@@H](CCCCNC(=O)CC[C@H](NC(=O)CC[C@H](NC(=O)COCCOCCNC(=O)COCCOCCNC(=O)CC[C@H](NC(=O)CCCCCCCCCCCCCCC(=O)O)C(=O)O)C(=O)O)C(=O)O)C(=O)N[C@@H](Cc1c[nH]c2ccccc12)C(=O)N[C@@H](CC(C)C)C(=O)N[C@@H](CC(C)C)C(=O)N[C@@H](CO)C(=O)N[C@H](C(=O)O)[C@@H](C)O)C(C)C [Example 94, N^ε24-[(4S)-4-carboxy-4-[[(4S)-4-carboxy-4-[[2-[2-[2-[[2-[2-[2-[[(4S)-4-carboxy-4-(15-carboxypentadecanoylamino)butanoyl]amino]ethoxy]ethoxy]acetyl]amino]ethoxy]ethoxy]acetyl]amino]butanoyl]amino]butanoyl]-[Arg12,Glu16,Lys24,Leu27,Ser28]-Glucagon] (H-HSQGTFTSDYSRYLDERRAQDFVK([γGlu-γGlu-AEEA-AEEA-γGlu-C16 diacid])WLLST-OH; N-terminus and C-terminus assumed)
- Chemical stability [Purity loss/14 days 37 C.] [1]: 8.8%
- EC50 (glucagon receptor): 0.029 nM

Structure (SMILES): CC(C)C[C@H](NC(=O)[C@H](Cc1c[nH]c2ccccc12)NC(=O)[C@H](CCCCNC(=O)CC[C@H](NC(=O)CC[C@H](NC(=O)COCCOCCNC(=O)COCCOCCNC(=O)CC[C@H](NC(=O)CCCCCCCCCCCCCCC(=O)O)C(=O)O)C(=O)O)C(=O)O)NC(=O)[C@@H](NC(=O)[C@H](Cc1ccccc1)NC(=O)[C@H](CC(=O)O)NC(=O)[C@H](CCC(N)=O)NC(=O)[C@H](C)NC(=O)[C@H](CCCNC(=N)N)NC(=O)[C@H](CCCNC(=N)N)NC(=O)[C@@H](NC(=O)[C@H](CC(=O)O)NC(=O)[C@H](CC(C)C)NC(=O)[C@H](Cc1ccc(O)cc1)NC(=O)[C@H](CCCCN)NC(=O)[C@H](CO)NC(=O)[C@H](Cc1ccc(O)cc1)NC(=O)[C@H](CC(=O)O)NC(=O)[C@H](CO)NC(=O)[C@@H](NC(=O)[C@H](Cc1ccccc1)NC(=O)[C@@H](NC(=O)CNC(=O)[C@H](CCC(N)=O)NC(=O)[C@H](CO)NC(=O)[C@@H](N)Cc1c[nH]cn1)[C@@H](C)O)[C@@H](C)O)C(C)C)C(C)C)C(=O)N[C@@H](CC(C)C)C(=O)N[C@@H](CO)C(=O)N[C@H](C(=O)O)[C@@H](C)O [Example 95, N^ε24-[(4S)-4-carboxy-4-[[(4S)-4-carboxy-4-[[2-[2-[2-[[2-[2-[2-[[(4S)-4-carboxy-4-(15-carboxypentadecanoylamino)butanoyl]amino]ethoxy]ethoxy]acetyl]amino]ethoxy]ethoxy]acetyl]amino]butanoyl]amino]butanoyl]-[Val16,Lys24,Leu27,Ser28]-Glucagon] (H-HSQGTFTSDYSKYLDVRRAQDFVK([γGlu-γGlu-AEEA-AEEA-γGlu-C16 diacid])WLLST-OH; N-terminus and C-terminus assumed)
- Chemical stability [Purity loss/14 days 37 C.] [1]: 5.1%
- EC50 (glucagon receptor): 0.009 nM
